28 compounds from ChEMBL document CHEMBL3351455, “Discovery of 2-(cyclopentylamino)thieno[3,2-d]pyrimidin-4(3H)-one derivatives as a new series of potent phosphodiesterase 7 inhibitors” (J Med Chem, 2014) can be followed below.

Broadly, the IC50 is the concentration at which inhibition is half-maximal.

Molecules are shown by their SMILES.

The target of data set [1] is High affinity 3',5'-cyclic-AMP phosphodiesterase 7A (Homo sapiens, UniProt Q13946). The data set can be described thus: Inhibition of human PDE7A1 expressed in insect cells assessed as inhibition of [3H]cAMP to [3H]AMP hydrolysis after 30 mins by scintillation counting.
Chain of High affinity 3',5'-cyclic-AMP phosphodiesterase 7A (Q13946 whole entry): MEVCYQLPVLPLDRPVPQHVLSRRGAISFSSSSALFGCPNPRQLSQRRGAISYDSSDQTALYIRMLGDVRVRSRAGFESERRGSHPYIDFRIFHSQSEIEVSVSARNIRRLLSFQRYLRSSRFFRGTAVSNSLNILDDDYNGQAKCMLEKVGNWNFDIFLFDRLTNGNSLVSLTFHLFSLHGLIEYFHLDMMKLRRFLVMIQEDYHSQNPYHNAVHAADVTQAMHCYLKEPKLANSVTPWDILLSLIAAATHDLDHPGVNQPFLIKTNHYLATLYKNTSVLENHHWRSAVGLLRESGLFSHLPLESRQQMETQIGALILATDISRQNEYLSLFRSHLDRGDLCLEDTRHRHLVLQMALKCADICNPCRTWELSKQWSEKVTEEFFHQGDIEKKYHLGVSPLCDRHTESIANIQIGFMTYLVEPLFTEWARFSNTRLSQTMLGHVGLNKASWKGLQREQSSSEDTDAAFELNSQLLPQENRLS
For data set [2], the target named is 3',5'-cyclic-AMP phosphodiesterase 4B (Homo sapiens, UniProt Q07343). Put plainly: Inhibition of human PDE4B1 expressed in insect cells assessed as inhibition of [3H]cAMP to [3H]AMP hydrolysis after 30 mins by scintillation counting.
Chain of 3',5'-cyclic-AMP phosphodiesterase 4B (Q07343 whole entry): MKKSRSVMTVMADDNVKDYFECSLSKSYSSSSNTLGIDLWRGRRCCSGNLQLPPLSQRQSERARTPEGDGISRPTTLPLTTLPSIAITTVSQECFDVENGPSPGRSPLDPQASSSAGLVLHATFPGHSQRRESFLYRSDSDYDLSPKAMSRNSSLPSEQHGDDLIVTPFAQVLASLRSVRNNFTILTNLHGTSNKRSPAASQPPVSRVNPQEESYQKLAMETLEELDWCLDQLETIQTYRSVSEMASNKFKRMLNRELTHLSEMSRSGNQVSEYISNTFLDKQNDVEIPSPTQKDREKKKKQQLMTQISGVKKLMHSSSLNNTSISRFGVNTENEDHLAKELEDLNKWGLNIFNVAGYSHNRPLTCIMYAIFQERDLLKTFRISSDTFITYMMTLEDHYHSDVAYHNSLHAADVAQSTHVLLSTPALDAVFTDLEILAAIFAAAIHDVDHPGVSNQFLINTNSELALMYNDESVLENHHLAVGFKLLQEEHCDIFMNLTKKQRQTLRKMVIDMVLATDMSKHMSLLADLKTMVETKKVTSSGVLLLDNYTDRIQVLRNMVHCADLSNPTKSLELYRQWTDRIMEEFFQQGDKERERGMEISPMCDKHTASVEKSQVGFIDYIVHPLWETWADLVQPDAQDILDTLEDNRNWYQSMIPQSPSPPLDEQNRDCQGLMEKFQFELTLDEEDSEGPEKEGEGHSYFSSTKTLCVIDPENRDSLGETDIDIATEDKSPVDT
For data set [3], the system named is Lymphocyte. The data set can be described thus: Inhibition of IL2 production in activated mouse lymphocytes after 3 hrs by ELISA. Type of data set: functional, cell-based. On the technique in general: An ELISA detects its analyte on a solid surface through an enzyme-linked reagent.
A short description of data set [4]: Permeability of the compound by PAMPA. Type of data set: ADME. (In PAMPA a lipid-coated filter parts donor from acceptor wells.)
The test system of data set [5] is Liver microsome. Put plainly: Stability in rat liver microsomes. Type of data set: ADME. Background: Liver microsomes are vesicles of endoplasmic reticulum, rich in cytochrome P450 enzymes.
Data set [6] has as its system Liver microsome. The data set can be described thus: Stability in human liver microsomes. Type of data set: ADME.

For the compound `C=CCNc1nc2cc(-c3ccc(N4CCN(C(C)C)CC4)cc3)sc2c(=O)n1C`, in data set [1], the IC50 came to 160 nM.

`C=CCNc1nc2cc(-c3cccc(C(=O)NCCO)c3)sc2c(=O)n1C`: in data set [1], the IC50 came out at 1100 nM.

For `C=CCNc1nc2cc(-c3ccc(C(=O)NCCCN(C)C)cc3)sc2c(=O)n1C`, in data set [1], the IC50 is 310 nM.

Take `C=CCNc1nc2cc(-c3ccccc3)sc2c(=O)n1C`: the IC50 in data set [1] was determined as 6800 nM.

On to `C=CCNc1nc2ccsc2c(=O)n1C`, for which the IC50 in data set [1] amounted to 5000 nM.

As to `CCn1c(NC2CCCC2)nc2ccsc2c1=O`, the values for the IC50 in data set [1], in data set [2] and in data set [3] were 150 nM, 4900 nM and 5400 nM, respectively.

As for `CCn1c(NC2CCCCC2)nc2ccsc2c1=O`, in data set [1], the 50% inhibitory concentration (IC50) is 740 nM.

As for `CCn1c(NC2CCCC2)nc2cc(C)sc2c1=O`, the IC50 in data set [1] stood at 11000 nM.

As to `CCc1cc2nc(NC3CCCC3)n(CC)c(=O)c2s1`, the IC50 was found to be 6500 nM in data set [1] and 3500 nM in data set [2].

`CCn1c(NC2CCCC2)nc2cc(CNc3cccnc3)sc2c1=O`: the IC50 was more than 1000 nM in data set [1] and 920 nM in data set [2].

`CCn1c(NC2CCCC2)nc2cc(C(=O)Nc3ccc(N4CCC(O)CC4)nc3)sc2c1=O`: the IC50 in data set [1] was determined as 2600 nM.

For the compound `CCn1c(NC2CCCC2)nc2c(C)csc2c1=O`, the IC50 was 98 nM in data set [1], 3800 nM in data set [2] and more than 3000 nM in data set [3].

Take `CCc1csc2c(=O)n(CC)c(NC3CCCC3)nc12`: the values for the IC50 in data set [1], in data set [2] and in data set [3] were 42 nM, 5900 nM and 2900 nM, respectively.

Take `C=Cc1csc2c(=O)n(CC)c(NC3CCCC3)nc12`: the IC50 in data set [1] came to 30 nM; in data set [2], 3700 nM; in data set [3], 980 nM.

On to `C#Cc1csc2c(=O)n(CC)c(NC3CCCC3)nc12`, for which the IC50 in data set [2] turned out to be 3000 nM; in data set [3] it was 560 nM.

For `CCn1c(NC2CCCC2)nc2c(C#N)csc2c1=O`, the IC50 in data set [1] was 67 nM; in data set [2], 3200 nM; in data set [3], 890 nM.

Regarding `CCn1c(NC2CCCC2)nc2c(C#Cc3cccnc3)csc2c1=O`, the results for the IC50 in data set [1], in data set [2] and in data set [3] were 4.2 nM, 1400 nM and 1300 nM, respectively.

In the case of `CCn1c(NC2CCCC2)nc2c(C#CCN3CCOCC3)csc2c1=O`, the figures for the IC50 in data set [1], in data set [2] and in data set [3] were 19 nM, 820 nM and 1700 nM, respectively.

As to `CCn1c(NC2CCCC2)nc2c(CCc3cccnc3)csc2c1=O`, the IC50 came out at 7.3 nM in data set [1], 1100 nM in data set [2] and 1000 nM in data set [3].

For the compound `CCn1c(NC2CCCC2)nc2c(CCCN3CCOCC3)csc2c1=O`, the IC50 in data set [1] worked out at 39 nM; in data set [2] it was 3400 nM; in data set [3], 2000 nM.

Turning to `CCn1c(NC2CCCC2)nc2c(-c3ccccc3)csc2c1=O`, the results for the IC50 in data set [1], in data set [2] and in data set [3] were 5.6 nM, 720 nM and 1800 nM, respectively.

For the compound `CCn1c(NC2CCCC2)nc2c(-c3ccccc3C(=O)OC)csc2c1=O`, the half-maximal inhibitory concentration (IC50) in data set [1] came out at 380 nM; in data set [2], 3800 nM; in data set [3], 9100 nM.

On to `CCn1c(NC2CCCC2)nc2c(-c3cccc(C(=O)OC)c3)csc2c1=O`, for which the IC50 in data set [1] was determined as 5 nM; in data set [2], 480 nM; in data set [3], 290 nM.

Turning to `CCn1c(NC2CCCC2)nc2c(-c3ccc(C(=O)OC)cc3)csc2c1=O`, the IC50 in data set [1] worked out at 4.9 nM; in data set [2] it was 1000 nM; in data set [3] it was 1300 nM.

As to `CCn1c(NC2CCCC2)nc2c(-c3cccnc3)csc2c1=O`, the permeability result in data set [4] is on record as “permeable”. In addition, the Stability entry in data set [5] and in data set [6] was “Unstable” throughout. The IC50 is 2 nM in data set [1], 380 nM in data set [2] and 89 nM in data set [3].

As for `CCn1c(NC2CCCC2)nc2c(-c3ccc(CN4CCOCC4)cc3)csc2c1=O`, in data set [4], the permeability entry is reported as “permeable”. For the same compound, the Stability entry in data set [5] and in data set [6] was “Unstable” throughout. The IC50 in data set [1] worked out at 2.3 nM; in data set [2], 640 nM; in data set [3], 1000 nM.

Consider `CCn1c(NC2CCCC2)nc2c(-c3ccc(N4CCOCC4)nc3)csc2c1=O`, for which, in data set [4], the permeability entry is “permeable”. The Stability result in data set [5] and in data set [6] was “Unstable” throughout. Moreover, the IC50 was determined as 520 nM in data set [2] and 77 nM in data set [3].

For `CCn1c(NC2CCCC2)nc2c(N3CCN(C(=O)OC(C)(C)C)CC3=O)csc2c1=O`, the IC50 came out at 12 nM in data set [1], 3300 nM in data set [2] and 3000 nM in data set [3].
